According to PubChem BioAssay AID256 (DTP/NCI, 2004):
Several values for one entry are separate records, joined by “and”; a condition that tells them apart may be missing. Identical values can stand only once. Toxic doses and inconclusive results are not listed.

Test system: CD2F1 mice, L1210 leukemia ip, survival T/C
Test: NCI In Vivo Anticancer Drug Screen. Data for tumor model L1210 Leukemia (intraperitoneal) in CD2F1 (CDF1) mice
Conditions: endpoint: mean survival time, higher = longer survival
Summary of the method: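 Vehicle-treated tumor-bearing mice served as controls (C) for compound-treated mice (T). Reported figure is T divided by C.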

[1] = dose: 100.0 mg/kg/injection, schedule: Q01DX009 (ip), vehicle: saline with Tween-80
[2] = dose: 200.0 mg/kg/injection, schedule: Q01DX009 (ip), vehicle: saline with Tween-80
[3] = dose: 400.0 mg/kg/injection, schedule: Q01DX009 (ip), vehicle: saline with Tween-80
[4] = dose: 75.0 mg/kg/injection, schedule: Q01DX001 (ip), vehicle: saline
[5] = dose: 100.0 mg/kg/injection, schedule: Q04DX003 (ip), vehicle: saline with Tween-80
[6] = dose: 200.0 mg/kg/injection, schedule: Q04DX003 (ip), vehicle: saline with Tween-80
[7] = dose: 400.0 mg/kg/injection, schedule: Q04DX003 (ip), vehicle: saline with Tween-80
[8] = dose: 100.0 mg/kg/injection, schedule: Q04DX003 (ip), vehicle: other
[9] = dose: 200.0 mg/kg/injection, schedule: Q04DX003 (ip), vehicle: other
[10] = dose: 50.0 mg/kg/injection, schedule: Q04DX003 (ip), vehicle: saline with Tween-80
[11] = dose: 25.0 mg/kg/injection, schedule: Q01DX009 (ip), vehicle: saline with Tween-80
[12] = dose: 50.0 mg/kg/injection, schedule: Q01DX009 (ip), vehicle: saline with Tween-80
[13] = dose: 12.5 mg/kg/injection, schedule: Q04DX003 (ip), vehicle: saline
[14] = dose: 25.0 mg/kg/injection, schedule: Q04DX003 (ip), vehicle: saline
[15] = dose: 50.0 mg/kg/injection, schedule: Q04DX003 (ip), vehicle: saline
[16] = dose: 100.0 mg/kg/injection, schedule: Q01DX001 (ip), vehicle: saline
[17] = dose: 200.0 mg/kg/injection, schedule: Q01DX001 (ip), vehicle: saline

`O=c1c2cc([N+](=O)[O-])cc3c2-c2c4c(cc([N+](=O)[O-])cc14)c(O)c1cc([N+](=O)[O-])cc(c3=O)c21` was tested, and the T/C [1] was 103 % of control, the T/C [2] was 117 % of control and the T/C [3] was 113 % of control.

`CC(C/C=N/N1CCCCC1)Nc1ccnc2cc(Cl)ccc12` (stereo not drawn) was tested, and the T/C (dose: 0.78 mg/kg/injection, schedule: Q01DX009 (ip), vehicle: saline with Tween-80) was 95 % of control, the T/C (dose: 1.56 mg/kg/injection, schedule: Q01DX009 (ip), vehicle: saline with Tween-80) was 101 % of control and the T/C (dose: 3.13 mg/kg/injection, schedule: Q01DX009 (ip), vehicle: saline with Tween-80) was 102 % of control.

In the case of `O=[N+]([O-])O.[Cu+2].[NH-]C1CCCCC1[NH-].[NH-]C1CCCCC1[NH-]` (stereo not drawn), the T/C (dose: 12.5 mg/kg/injection, schedule: Q04DX002 (ip), vehicle: saline with Tween-80) is reported as 94 % of control.

`CC(=O)NC1=C(Sc2ccc([N+](=O)[O-])cc2)C(=O)c2ccccc2C1=O` was tested, and the T/C [4] was 98 % of control.

`CCOC(=O)C(CCCCC(NC(C)=O)(C(=O)OCC)C(=O)OCC)(NC(C)=O)C(=O)OCC` was tested, and the T/C [5] was 98 % of control, the T/C [6] was 92 % of control and the T/C [7] was 92 % of control.

`CN(C)c1ccc(/C=C/C(=O)Cc2ccccc2)cc1` was tested, and the T/C (dose: 100.0 mg/kg/injection, schedule: Q01DX001 (ip), vehicle: saline sonified) was 100 % of control.

`Cc1cc(OC(=S)N(C)C)c(S(=O)(=O)F)cc1Cl` was tested, and the T/C (dose: 100.0 mg/kg/injection, schedule: Q04DX002 (ip), vehicle: saline with Tween-80) was 95 % of control, the T/C (dose: 200.0 mg/kg/injection, schedule: Q04DX002 (ip), vehicle: saline with Tween-80) was 98 % of control and the T/C (dose: 400.0 mg/kg/injection, schedule: Q04DX002 (ip), vehicle: saline with Tween-80) was 95 % of control.

With `CCC(C)Nc1ccc(N)cc1` (stereo not drawn) the T/C (dose: 0.09 mg/kg/injection, schedule: Q01DX009 (ip), vehicle: Klucel (hydroxypropylcellulose) (HPC)) was 103 % of control, the T/C (dose: 0.18 mg/kg/injection, schedule: Q01DX009 (ip), vehicle: Klucel (hydroxypropylcellulose) (HPC)) was 94 % of control and the T/C (dose: 0.37 mg/kg/injection, schedule: Q01DX009 (ip), vehicle: Klucel (hydroxypropylcellulose) (HPC)) was 103 % of control. For the same molecule, the T/C (dose: 0.75 mg/kg/injection, schedule: Q01DX009 (ip), vehicle: Klucel (hydroxypropylcellulose) (HPC)) was 103 % of control, the T/C (dose: 1.5 mg/kg/injection, schedule: Q01DX009 (ip), vehicle: Klucel (hydroxypropylcellulose) (HPC)) was 102 % of control and the T/C (dose: 3.0 mg/kg/injection, schedule: Q01DX009 (ip), vehicle: Klucel (hydroxypropylcellulose) (HPC)) was 94 % of control.

With `CCCCCCCCCCCCCCNC(=O)Nc1ccc(Cl)c(Cl)c1` the T/C [8] was 89 % of control and the T/C [9] was 86 % of control.

`CCOC(=O)/C=C(\C)N1CCCCC1` was tested, and the T/C (dose: 100.0 mg/kg/injection, schedule: Q04DX003 (ip), vehicle: saline) was 92 % of control, the T/C (dose: 200.0 mg/kg/injection, schedule: Q04DX003 (ip), vehicle: saline) was 91 % of control and the T/C (dose: 400.0 mg/kg/injection, schedule: Q04DX003 (ip), vehicle: saline) was 94 % of control.

`NC(=O)C[P+](c1ccccc1)(c1ccccc1)c1ccccc1` was tested, and the T/C (dose: 25.0 mg/kg/injection, schedule: Q04DX003 (ip), vehicle: saline with Tween-80) was 109 % of control, the T/C [10] was 114 % of control and the T/C [5] was 102 % of control and 105 % of control.

`CCCN(CCC)CN(CCC)CCC` was tested, and the T/C (dose: 50.0 mg/kg/injection, schedule: Q01DX009 (ip), vehicle: saline) was 98 % of control and the T/C (dose: 100.0 mg/kg/injection, schedule: Q01DX009 (ip), vehicle: saline) was 105 % of control.

With `COc1cc(C)c(O)c(C[P+](c2ccccc2)(c2ccccc2)c2ccccc2)c1` the T/C [11] was 98 % of control, the T/C [12] was 94 % of control and the T/C [10] was 106 % of control. The T/C [5] was 96 % of control.

For `C[N+]1(CCC(c2ccccc2)c2ccccc2)CCCCC1`, the T/C [13] was 96 % of control, the T/C [14] was 104 % of control and the T/C [15] was 102 % of control.

In the case of `CCCN(CCC)S(=O)(=O)c1ccc(NC(=O)OC2CCCCCC2)cc1`, the T/C [16] is reported as 104 % of control, the T/C [17] is reported as 108 % of control and the T/C (dose: 400.0 mg/kg/injection, schedule: Q01DX001 (ip), vehicle: saline) is reported as 104 % of control.

For `CCN(CC)CCCOC(=O)c1ccc(N)cc1`, the T/C [13] was 107 % of control, the T/C [14] was 105 % of control and the T/C [15] was 101 % of control.

`COc1cc2c(c(OC)c1OC)-c1ccc(SC)c(=O)cc1C(N=C(NC1OCC(OC(C)=O)C(OC(C)=O)C1OC(C)=O)SN(NC(=O)OCc1ccccc1)C(=O)OCc1ccccc1)CC2` (stereo not drawn) was tested, and the T/C (dose: 100.0 mg/kg/injection, schedule: Q01DX001 (ip), vehicle: saline with Tween-80) was 92 % of control.

`O=C(O)C(Br)(Br)Br.[Ag]` was tested, and the T/C [5] was 92 % of control, the T/C [6] was 89 % of control and the T/C [7] was 97 % of control.

For `COC(=O)c1ccccc1NC(=O)CCl`, the T/C [12] was 96 % of control, the T/C [1] was 98 % of control and the T/C [2] was 94 % of control.

For `C1=CC2c3ccc4ccccc4c3C(c3ccccc3)C2C=C1` (stereo not drawn), the T/C [5] was 108 % of control, the T/C [6] was 96 % of control and the T/C [7] was 102 % of control.

In the case of `NNS(=O)(=O)c1ccc(Oc2ccc(S(=O)(=O)NN)cc2)cc1`, the T/C (dose: 50.0 mg/kg/injection, schedule: Q01DX009 (ip), vehicle: Klucel (hydroxypropylcellulose) (HPC)) is reported as 101 % of control, the T/C (dose: 100.0 mg/kg/injection, schedule: Q01DX009 (ip), vehicle: Klucel (hydroxypropylcellulose) (HPC)) is reported as 96 % of control and the T/C (dose: 200.0 mg/kg/injection, schedule: Q01DX009 (ip), vehicle: Klucel (hydroxypropylcellulose) (HPC)) is reported as 108 % of control.

With `CC(CC(=O)O)c1ccc(F)cc1` (stereo not drawn) the T/C [5] was 101 % of control, the T/C [6] was 100 % of control and the T/C [7] was 95 % of control.

`C[C@]12CCC(=O)C=C1CC[C@@H]1[C@@H]2[C@@H](O)C[C@@]2(C)[C@H]1CC[C@]2(O)C(=O)COC(=O)COCC(=O)O` was tested, and the T/C (dose: 100.0 mg/kg/injection, schedule: Q01DX001 (sc), vehicle: steriod suspending solution) was 106 % of control, the T/C (dose: 200.0 mg/kg/injection, schedule: Q01DX001 (sc), vehicle: steriod suspending solution) was 108 % of control and the T/C (dose: 400.0 mg/kg/injection, schedule: Q01DX001 (sc), vehicle: steriod suspending solution) was 103 % of control.

With `CCC(C#N)C1=CCCCCC1` (stereo not drawn) the T/C [5] was 103 % of control.

With `O=c1cc(C(Br)(Br)Br)[nH]c2ccccc12` the T/C [5] was 99 % of control, the T/C [6] was 97 % of control and the T/C [7] was 99 % of control.

In the case of `CN(C)CC(C)(C)C(=O)c1ccc(F)cc1`, the T/C (dose: 12.5 mg/kg/injection, schedule: Q04DX002 (ip), vehicle: saline) is reported as 104 % of control, the T/C (dose: 25.0 mg/kg/injection, schedule: Q04DX002 (ip), vehicle: saline) is reported as 101 % of control and the T/C (dose: 50.0 mg/kg/injection, schedule: Q04DX002 (ip), vehicle: saline) is reported as 96 % of control.

`O=C(SC1=NCCN1)c1ccccc1` was tested, and the T/C [16] was 94 % of control and the T/C [17] was 102 % of control.

`CCC(C)NC(=O)C1C2CCC(C2)C1C(=O)NC(C)CC` (stereo not drawn) was tested, and the T/C [5] was 98 % of control, the T/C [6] was 98 % of control and the T/C [7] was 102 % of control.

For `COc1cc(OC)c(NC(=O)Oc2ccc(Br)cc2Br)cc1Cl`, the T/C (dose: 12.5 mg/kg/injection, schedule: Q01DX009 (ip), vehicle: saline with Tween-80) was 92 % of control, the T/C [11] was 100 % of control and the T/C [12] was 94 % of control and 107 % of control. The T/C [1] was 94 % of control and the T/C [2] was 90 % of control.

In the case of `Clc1ccc(N=Cc2ccc3c(c2)OCO3)cc1`, the T/C [8] is reported as 91 % of control, the T/C [9] is reported as 96 % of control and the T/C (dose: 400.0 mg/kg/injection, schedule: Q04DX003 (ip), vehicle: other) is reported as 100 % of control.

For `Cc1ccc(C)c(N=Nc2ccc(O)cc2)c1`, the T/C [5] was 104 % of control, the T/C [6] was 100 % of control and the T/C [7] was 105 % of control.

For `COC(=O)C1(C)CCCC2(C)C1CCC1(O)C2CC2OC2(C(C)C)C1O` (stereo not drawn), the T/C [1] was 102 % of control, the T/C [5] was 97 % of control and the T/C [2] was 96 % of control. For the same molecule, the T/C [6] was 93 % of control, the T/C [3] was 98 % of control and the T/C [7] was 87 % of control.

With `CCOC(=O)c1cc2c(=O)cccnc2o1` the T/C [4] was 93 % of control, the T/C (dose: 150.0 mg/kg/injection, schedule: Q01DX001 (ip), vehicle: saline) was 96 % of control and the T/C (dose: 300.0 mg/kg/injection, schedule: Q01DX001 (ip), vehicle: saline) was 96 % of control.

For `C1CC2OC2C1` (stereo not drawn), the T/C (dose: 100.0 mg/kg/injection, schedule: Q01DX009 (ip), vehicle: acetone) was 95 % of control, the T/C (dose: 200.0 mg/kg/injection, schedule: Q01DX009 (ip), vehicle: acetone) was 97 % of control and the T/C (dose: 400.0 mg/kg/injection, schedule: Q01DX009 (ip), vehicle: acetone) was 95 % of control.
